The source of these data is patent US8691799B2, “Materials and methods for treatment of cancer and identification of anti-cancer compounds” (priority 2001, dated 2014).

Structures are written as SMILES.

Assay [1] relates to Calu-1 tumors. Description: Antitumor activity, Calu-1 xenograft in nude mice. It counts as in vivo. The conditions noted are these: 1 mg/kg/day i.p. From the text:
Antitumor Activity in the Nude Mouse Tumor Xenograft Model. Nude mice and C57 BL-6 black mice (National Cancer Institute, Bethesda, Md.) were maintained in accordance with the Institutional Animal Care and Use Committee (IACUC) procedures and guidelines. v-Src- and oncogenic H-Ras-transformed NIH 3T3, A549, MDA-MB-468 and Calu-1 cells were harvested, resuspended in PBS and injected s.c. into the right and left flank (10×10^6 cells per flank) of 8 week old female nude mice as reported previously (Sun, J. et al. Cancer Res., 1999, 59:4919-4926). Similarly, murine B16-F10 Melanoma cells were injected s.c. into the right and left flank (10^6 cells per flank) of C57 black mice. When tumors reached about 150 mm^3, animals were randomized (five animals per group; two tumors per animal) and dosed i.p. with 0.2 ml once daily. Control animals received DMSO (20%) vehicle whereas treated animals were injected with JSI-124 (1 mg/kg/day) in 20% DMSO in water. The tumor volumes were determined by measuring the length (l) and the width (w) and calculating the volume (V=1w^2/2) as described previously (Sun, J. et al. Cancer Res., 1999, 59:4919-4926). Statistical significance between control and treated animals were evaluated by using Student's t-test. […] Percent surviving mice was determined by monitoring the death of mice until all mice died. […]

Assay [2] relates to STAT3-dependent pLucTKS3 luciferase reporter. Description: STAT3-dependent luciferase reporter assay in v-Src/NIH 3T3 fibroblasts. The assay is classed as cell-based, murine. The conditions noted are these: 10 μM, 24-48 hr. From the text:
DNA Binding and Transcription. The STAT3 reporter, pLucTKS3, driving expression of firefly luciferase has been previously described (Turkson, J. et al. Mol. Cell Biol., 1999, 19:7519-7528). The pLucTKS3 plasmid harbors seven copies of a sequence corresponding to the STAT3-specific binding site in the promoter of the human C-reactive protein gene (Zhang, D. et al. J. Biol. Chem., 1996, 271:9503-9509). The STAT3-independent plasmid, pRLSRE, contains two copies of the serum response element (SRE) from the c-fos promoter (Yamauchi, K. et al. J. Biol. Chem., 1993, 268:14597-14600), subcloned into renilla luciferase reporter, pRL-null (Promega Corporation, Madison, Wis.).
Transfection and Generation of Stable Clones. […]
Preparation of Cytosolic Extracts. […] Cells were resuspended in 0.4 ml of low-salt HEPES buffer (10 mM HEPES, pH 7.8, 10 mM KCl, 0.1 mM EGTA, 0.1 mM EDTA, 1 mM PMSF, and 1 mM DTT) for 15 min, lysed by the addition of 20 μl of 10% NP-40, and centrifuged (10,000×g, 30 sec, 4° C.) to obtain the cytosolic supernatant, which was used for luciferase assays (Promega Corporation) measured with a luminometer.

The target in assay [3] is T1, EGFR (Homo sapiens, UniProt P00533).
T1 construct: EGFR tyrosine phosphorylation in the breast cell line MCF-10A; endogenous in cells; host or cells: MCF-10A; also EGFR-overexpressing NIH 3T3
The experiment in a line: EGF-stimulation of EGFR tyrosine phosphorylation. The assay is classed as cell-based. Conditions: MCF-10A and EGFR-overexpressing NIH 3T3 cells (data not shown).

T1 sequence (P00533 25-1210): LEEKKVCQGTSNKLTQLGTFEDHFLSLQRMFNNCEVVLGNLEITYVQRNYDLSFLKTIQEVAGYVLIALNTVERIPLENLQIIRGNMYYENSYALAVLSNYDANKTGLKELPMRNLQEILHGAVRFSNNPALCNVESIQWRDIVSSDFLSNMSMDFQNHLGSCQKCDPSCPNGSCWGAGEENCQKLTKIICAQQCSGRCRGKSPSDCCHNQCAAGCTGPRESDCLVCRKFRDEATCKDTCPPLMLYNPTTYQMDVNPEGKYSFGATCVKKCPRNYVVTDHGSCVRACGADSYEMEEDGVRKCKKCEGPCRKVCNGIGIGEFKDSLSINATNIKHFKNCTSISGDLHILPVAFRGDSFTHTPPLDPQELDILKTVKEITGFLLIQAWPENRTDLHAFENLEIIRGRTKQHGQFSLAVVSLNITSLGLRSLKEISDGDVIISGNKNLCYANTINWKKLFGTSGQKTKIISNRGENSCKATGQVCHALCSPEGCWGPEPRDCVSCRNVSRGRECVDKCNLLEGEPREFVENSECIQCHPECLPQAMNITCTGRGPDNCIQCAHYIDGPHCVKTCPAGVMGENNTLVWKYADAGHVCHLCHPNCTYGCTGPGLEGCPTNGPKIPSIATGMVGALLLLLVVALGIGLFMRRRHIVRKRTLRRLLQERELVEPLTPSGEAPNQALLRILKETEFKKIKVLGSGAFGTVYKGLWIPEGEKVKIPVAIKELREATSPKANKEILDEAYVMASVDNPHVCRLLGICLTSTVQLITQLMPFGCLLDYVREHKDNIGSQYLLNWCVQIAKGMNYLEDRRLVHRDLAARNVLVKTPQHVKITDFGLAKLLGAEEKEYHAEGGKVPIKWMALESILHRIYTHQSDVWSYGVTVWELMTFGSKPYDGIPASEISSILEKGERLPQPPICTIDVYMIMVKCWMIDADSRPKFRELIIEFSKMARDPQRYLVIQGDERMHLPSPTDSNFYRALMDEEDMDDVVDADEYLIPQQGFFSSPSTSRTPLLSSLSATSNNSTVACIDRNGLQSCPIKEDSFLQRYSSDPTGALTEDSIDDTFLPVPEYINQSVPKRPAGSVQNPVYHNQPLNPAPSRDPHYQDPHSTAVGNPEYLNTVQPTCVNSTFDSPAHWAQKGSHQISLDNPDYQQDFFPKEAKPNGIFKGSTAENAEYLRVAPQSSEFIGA

In the case of `CC(C)(O)/C=C/C(=O)[C@](C)(O)[C@H]1[C@H](O)C[C@@]2(C)[C@@H]3CC=C4[C@@H](C=C(O)C(=O)C4(C)C)[C@]3(C)C(=O)C[C@]12C` [JSI-124, cucurbitacin I], the “effect on growth of Calu-1 tumors” value in assay [1] is “little effect”. Moreover, in assay [2], the “induction of STAT3-dependent pLucTKS3 luciferase reporter” value is listed as “significantly suppresses”. In addition, in assay [3], the “EGF-stimulated EGFR tyrosine phosphorylation” value was “inhibited only minimally”.
